{
  "source": "paper PMC11926855",
  "about": "“Photochemistry of Receptor-Bound Flavin Resolved in Living Human Cells by Infrared Spectroscopy” (Journal of the American Chemical Society, 2025)",
  "key": {"[1]": {"biological_target": "T1, LOV (LOV sensor of aureochrome1a) (Phaeodactylum tricornutum, UniProt A0A140UHJ0, I28V, form not given)", "T1 construct": "isolated LOV sensor domain without bZIP effector; transiently transfected HEK cells, also E. coli cells and in vitro", "T1 sequence (A0A140UHJ0 entry or part of it I28V, form open)": "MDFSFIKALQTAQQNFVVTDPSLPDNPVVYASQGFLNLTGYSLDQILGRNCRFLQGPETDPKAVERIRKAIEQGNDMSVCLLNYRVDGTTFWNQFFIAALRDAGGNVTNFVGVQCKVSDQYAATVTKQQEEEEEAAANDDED", "assay": "light-induced in-cell ATR-FTIR difference spectroscopy (ICIRD)", "format": "cell-based", "conditions": "living HEK cells, 37 °C, blue light; covalent photoadduct with Cys287 on illumination, noncovalent in dark; also in vitro and E. coli cells"}, "[2]": {"biological_target": "T2, LOV (LOV sensor of aureochrome1a) (Phaeodactylum tricornutum, UniProt A0A140UHJ0, I28V)", "T2 construct": "isolated LOV sensor domain without bZIP effector; transiently transfected HEK cells, also E. coli cells and in vitro", "T2 sequence (A0A140UHJ0 entry or part of it I28V)": "as the sequence (A0A140UHJ0 entry or part of it I28V, form open) above", "assay": "light-induced FTIR difference spectroscopy in vitro", "format": "binding", "conditions": "wild type compared with I264V; covalent photoadduct with Cys287 on illumination"}, "pCRY-PHR": {"biological_target": "T3, pCRY-PHR (Chlamydomonas reinhardtii, UniProt Q42696)", "T3 construct": "gene CPH1; photolyase homology region (PHR) without CCT, mCherry fused as reporter; stably transfected HEK cells, also E. coli cells", "T3 sequence (Q42696 entry or part of it)": "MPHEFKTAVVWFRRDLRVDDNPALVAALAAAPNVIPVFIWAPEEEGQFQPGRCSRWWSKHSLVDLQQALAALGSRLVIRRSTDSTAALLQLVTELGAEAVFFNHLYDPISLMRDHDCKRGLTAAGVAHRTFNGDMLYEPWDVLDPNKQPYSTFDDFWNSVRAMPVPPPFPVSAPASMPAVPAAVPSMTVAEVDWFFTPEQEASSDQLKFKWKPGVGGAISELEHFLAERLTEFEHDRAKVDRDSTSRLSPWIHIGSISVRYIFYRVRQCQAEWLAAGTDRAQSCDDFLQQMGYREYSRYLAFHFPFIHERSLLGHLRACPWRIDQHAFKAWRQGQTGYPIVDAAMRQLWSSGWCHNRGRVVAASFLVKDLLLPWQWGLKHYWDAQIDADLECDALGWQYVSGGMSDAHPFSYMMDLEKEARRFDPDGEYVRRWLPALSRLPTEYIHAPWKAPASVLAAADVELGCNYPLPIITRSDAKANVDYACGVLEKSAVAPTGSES", "assay": "light-induced in-cell ATR-FTIR difference spectroscopy (ICIRD)", "format": "cell-based", "conditions": "living HEK cells, 37 °C, blue light; noncovalent; oxidized flavin to flavin neutral radical"}},
  "data": [
    {"smiles": "Cc1cc2nc3c(=O)[nH]c(=O)nc-3n(C[C@H](O)[C@H](O)[C@H](O)COP(=O)(O)O)c2cc1C", "note": "[flavin mononucleotide]", "values": [
      {"measurement": "light-induced in-cell ATR-FTIR difference spectroscopy (ICIRD)", "setting": "[1]", "value": "formation of the cysteine adduct from the oxidized flavin"},
      {"measurement": "light-induced FTIR difference spectroscopy in vitro", "setting": "[2]", "value": "without altering the mechanism (Figure S6A)"}
    ]},
    {"smiles": "Cc1cc2nc3c(=O)[nH]c(=O)nc-3n(C[C@H](O)[C@H](O)[C@H](O)COP(=O)(O)OP(=O)(O)OC[C@H]3O[C@@H](n4cnc5c(N)ncnc54)[C@H](O)[C@@H]3O)c2cc1C", "note": "[flavin adenine dinucleotide]", "values": [
      {"measurement": "light-induced in-cell ATR-FTIR difference spectroscopy (ICIRD)", "setting": "pCRY-PHR", "value": "photoreaction of the oxidized flavin to the flavin neutral radical in pCRY-PHR"}
    ]}
  ]
}
